PubChem BioAssay AID1259407 (Chemical Carcinogenesis Research Information System (CCRIS), 2018)
Activity calls are given as the source filed them. How the calls were made is not given here.

System: CCRIS mutagenicity, Ames/micronucleus/aberration tests
Experiment: CCRIS mutagenicity studies

Measured: mutagenic call

CCC(C)=O
inactive: Test System: AMES SALMONELLA TYPHIMURIUM, Strain/Indicator: TA97, Metabolic Activation: HAMSTER, LIVER, S-9, AROCLOR 1254 (10 OR 30%), Method: PREINCUBATION inactive; negative | Test System: AMES SALMONELLA TYPHIMURIUM, Strain/Indicator: TA97, Metabolic Activation: NONE, Method: PREINCUBATION inactive; negative | Test System: AMES SALMONELLA TYPHIMURIUM, Strain/Indicator: TA97, Metabolic Activation: RAT, LIVER, S-9, AROCLOR 1254 (10 OR 30%), Method: PREINCUBATION inactive; negative | Test System: AMES SALMONELLA TYPHIMURIUM, Strain/Indicator: TA98, Metabolic Activation: HAMSTER, LIVER, S-9, AROCLOR 1254 (10 OR 30%), Method: PREINCUBATION inactive; negative | Test System: AMES SALMONELLA TYPHIMURIUM, Strain/Indicator: TA98, Metabolic Activation: RAT, LIVER, S-9, AROCLOR 1254 (10 OR 30%), Method: PREINCUBATION inactive; negative | Test System: AMES SALMONELLA TYPHIMURIUM, Strain/Indicator: TA98, Metabolic Activation: RAT, LIVER, S-9, AROCLOR 1254, Method: PREINCUBATION inactive; negative | Test System: AMES SALMONELLA TYPHIMURIUM, Strain/Indicator: TA98, Metabolic Activation: RAT, LIVER, S-9, KC 500, Method: PREINCUBATION inactive; negative | Test System: AMES SALMONELLA TYPHIMURIUM, Strain/Indicator: TA98, Metabolic Activation: RAT, LIVER, S-9, PHENOBARBITAL AND BETA-NAPHTHOFLAVONE, Method: PREINCUBATION inactive; negative | Test System: AMES SALMONELLA TYPHIMURIUM, Strain/Indicator: TA100, Metabolic Activation: HAMSTER, LIVER, S-9, AROCLOR 1254 (10 OR 30%), Method: PREINCUBATION inactive; negative | Test System: AMES SALMONELLA TYPHIMURIUM, Strain/Indicator: TA100, Metabolic Activation: RAT, LIVER, S-9, AROCLOR 1254 (10 OR 30%), Method: PREINCUBATION inactive; negative | Test System: AMES SALMONELLA TYPHIMURIUM, Strain/Indicator: TA100, Metabolic Activation: RAT, LIVER, S-9, AROCLOR 1254, Method: PREINCUBATION inactive; negative | Test System: AMES SALMONELLA TYPHIMURIUM, Strain/Indicator: TA100, Metabolic Activation: RAT, LIVER, S-9, KC 500, Method: PREINCUBATION inactive; negative | Test System: AMES SALMONELLA TYPHIMURIUM, Strain/Indicator: TA100, Metabolic Activation: RAT, LIVER, S-9, PHENOBARBITAL AND BETA-NAPHTHOFLAVONE, Method: PREINCUBATION inactive; negative | Test System: AMES SALMONELLA TYPHIMURIUM, Strain/Indicator: TA102, Metabolic Activation: NONE, Method: PREINCUBATION inactive; negative | Test System: AMES SALMONELLA TYPHIMURIUM, Strain/Indicator: TA102, Metabolic Activation: RAT, LIVER, S-9, PHENOBARBITAL AND BETA-NAPHTHOFLAVONE, Method: PREINCUBATION inactive; negative | Test System: AMES SALMONELLA TYPHIMURIUM, Strain/Indicator: TA104, Metabolic Activation: NONE, Method: PREINCUBATION inactive; negative | Test System: AMES SALMONELLA TYPHIMURIUM, Strain/Indicator: TA104, Metabolic Activation: RAT, LIVER, S-9, PHENOBARBITAL AND BETA-NAPHTHOFLAVONE, Method: PREINCUBATION inactive; negative | Test System: AMES SALMONELLA TYPHIMURIUM, Strain/Indicator: TA1535, Metabolic Activation: HAMSTER, LIVER, S-9, AROCLOR 1254 (10 OR 30%), Method: PREINCUBATION inactive; negative | Test System: AMES SALMONELLA TYPHIMURIUM, Strain/Indicator: TA1535, Metabolic Activation: RAT, LIVER, S-9, AROCLOR 1254 (10 OR 30%), Method: PREINCUBATION inactive; negative | Test System: AMES SALMONELLA TYPHIMURIUM, Strain/Indicator: TA1535, Metabolic Activation: RAT, LIVER, S-9, AROCLOR 1254, Method: PREINCUBATION inactive; negative | Test System: AMES SALMONELLA TYPHIMURIUM, Strain/Indicator: TA1535, Metabolic Activation: RAT, LIVER, S-9, KC 500, Method: PREINCUBATION inactive; negative | Test System: AMES SALMONELLA TYPHIMURIUM, Strain/Indicator: TA1535, Metabolic Activation: RAT, LIVER, S-9, PHENOBARBITAL AND BETA-NAPHTHOFLAVONE, Method: PREINCUBATION inactive; negative | Test System: AMES SALMONELLA TYPHIMURIUM, Strain/Indicator: TA1537, Metabolic Activation: HAMSTER, LIVER, S-9, AROCLOR 1254 (30%), Method: PREINCUBATION inactive; negative | Test System: AMES SALMONELLA TYPHIMURIUM, Strain/Indicator: TA1537, Metabolic Activation: RAT, LIVER, S-9, AROCLOR 1254 (30%), Method: PREINCUBATION inactive; negative | Test System: AMES SALMONELLA TYPHIMURIUM, Strain/Indicator: TA1537, Metabolic Activation: RAT, LIVER, S-9, AROCLOR 1254, Method: PREINCUBATION inactive; negative | Test System: AMES SALMONELLA TYPHIMURIUM, Strain/Indicator: TA1537, Metabolic Activation: RAT, LIVER, S-9, KC 500, Method: PREINCUBATION inactive; negative | Test System: AMES SALMONELLA TYPHIMURIUM, Strain/Indicator: TA1537, Metabolic Activation: RAT, LIVER, S-9, PHENOBARBITAL AND BETA-NAPHTHOFLAVONE, Method: PREINCUBATION inactive; negative | Test System: AMES SALMONELLA TYPHIMURIUM, Strain/Indicator: TA1538, Metabolic Activation: NONE, Method: PREINCUBATION inactive; negative | Test System: AMES SALMONELLA TYPHIMURIUM, Strain/Indicator: TA1538, Metabolic Activation: RAT, LIVER, S-9, AROCLOR 1254, Method: PREINCUBATION inactive; negative | Test System: AMES SALMONELLA TYPHIMURIUM, Strain/Indicator: TA1538, Metabolic Activation: RAT, LIVER, S-9, KC 500, Method: PREINCUBATION inactive; negative | Test System: E. COLI, Strain/Indicator: WP2UVRA/PKM101, Metabolic Activation: NONE, Method: PREINCUBATION inactive; negative | Test System: E. COLI, Strain/Indicator: WP2UVRA/PKM101, Metabolic Activation: RAT, LIVER, S-9, PHENOBARBITAL AND BETA-NAPHTHOFLAVONE, Method: PREINCUBATION inactive; negative | Test System: E. COLI, Strain/Indicator: WP2 UVRA, Metabolic Activation: NONE, Method: PREINCUBATION inactive; negative | Test System: E. COLI, Strain/Indicator: WP2UVRA, Metabolic Activation: NONE, Method: PREINCUBATION inactive; negative | Test System: E. COLI, Strain/Indicator: WP2 UVRA, Metabolic Activation: RAT, LIVER, S-9, KC 500, Method: PREINCUBATION inactive; negative | Test System: E. COLI, Strain/Indicator: WP2UVRA, Metabolic Activation: RAT, LIVER, S-9, PHENOBARBITAL AND BETA-NAPHTHOFLAVONE, Method: PREINCUBATION inactive; negative | Test System: MOUSE LYMPHOMA, Strain/Indicator: L5178Y (TK+/TK-), Metabolic Activation: NONE, Method: SUSPENSION/PLATE inactive; negative | Test System: MOUSE LYMPHOMA, Strain/Indicator: L5178Y (TK+/TK-), Metabolic Activation: RAT, LIVER, S-9, AROCLOR 1242 AND AROCLOR 1254 (2:1), Method: SUSPENSION/PLATE inactive; negative
